# Columns and labels:
# Assay type in all cases: in vivo
# [1] = system: brown planthopper (Nilaparvata lugens); assay: Test 6 brown planthopper, foliar spray (mixtures); details: Table 6.2, after 7 days, solo application Spinetoram, use rate 70 ppm
# Description: For evaluating control of brown planthopper (Nilaparvata lugens) by foliar spray method. Clean potted rice seedlings with upper leaf portion cut are properly labeled. Placed three potted rice plants per treatment concentration/combination on top of the rotating disc (270 mm) and sprayed with the 12 mL spray solution. Treated plants are allowed to air-dry in the laboratory for about an hour. After air-drying, covered each treated rice plant. Each treated plant was infested with brown planthoppers using a suction vacuum. Plants are maintained at 27° C.±1° C., 50±5% RH and 24 hours light conditions in a holding room. Percent mortality is recorded 7 days after infestation by counting both the dead and alive brown planthoppers on the plants and on the water.
# [2] = system: boll weevil (Anthonomus grandis); assay: Test 3 boll weevil, insect diet with eggs (mixtures); details: Table 3.2, solo application Spinetoram, use rate 4 ppm
# Description: For evaluating control of boll weevil (Anthonomus grandis) the test unit consisted of 24-well-microtiter plates containing an insect diet and 20-30 A. grandis eggs.
# The compounds or mixtures were formulated using a solution containing 75% water and 25% DMSO. Concentrations of formulated compounds or mixtures were sprayed onto the insect diet at 20 μl, using a custom built micro atomizer, at two replications.
# (§1) For experimental mixtures in these tests identical volumes of both mixing partners at the desired concentrations respectively, were mixed together.
# After application, microtiter plates were incubated at 23±1° C., 50±5% RH for 5 days. Egg and larval mortality was then visually assessed.
# [3] = system: vetch aphid (Megoura viciae); assay: Test 1 vetch aphid, leaf disks (mixtures); details: Table 1, solo application Spinetoram, use rate 2 ppm
# From the text: Synergism can be described as an interaction where the combined effect of two or more compounds is greater than the sum of the individual effects of each of the compounds. The presence of a synergistic effect in terms of percent control, between two mixing partners (X and Y) can be calculated using the Colby equation (Colby, S. R., 1967, Calculating Synergistic and Antagonistic Responses in Herbicide Combinations, Weeds, 15, 20-22):
# When the observed combined control effect is greater than the expected combined control effect (E), then the combined effect is synergistic.
# The analysis of synergism or antagonism between the mixtures or compositions was determined using Colby's equation.
# For evaluating control of vetch aphid (Megoura viciae) through contact or systemic means the test unit consisted of 24-well-microtiter plates containing broad bean leaf disks.
# The compounds or mixtures were formulated using a solution containing 75% water and 25% DMSO. Concentrations of formulated compounds or mixtures were sprayed onto the leaf disks at 2.5 μl, using a custom built micro atomizer, at two replications. […]
# After application, the leaf disks were air-dried and 5-8 adult aphids placed on the leaf disks inside the microtiter plate wells. […] Aphid mortality and fecundity was then visually assessed.
# [4] = system: yellow fever mosquito (Aedes aegypti); details: in vivo
# Description: For evaluating control of yellow fever mosquito (Aedes aegypti) the test unit consisted of 96-well-microtiter plates containing 200 μl of tap water per well and 5-15 freshly hatched A. aegypti larvae.
# The compounds or mixtures were formulated using a solution containing 75% water and 25% DMSO. Different concentrations of formulated compounds or mixtures were sprayed onto the insect diet at 2.5 μl, using a custom built micro atomizer, at two replications.
# as §1
# After application, microtiter plates were incubated at 28±1° C., 80±5% RH for 2 days. Larval mortality was then visually assessed.
# [5] = system: Greenhouse Whitefly (Trialeurodes vaporariorum); assay: Greenhouse Whitefly, egg plant leaf disk (table 5, mixtures); details: solo application Oxazosulfyl, use rate 50 ppm
# Description: For evaluating control of Greenhouse Whitefly (Trialeurodes vaporariorum) the test unit consisted of 96-well-microtiter plates containing a leaf disk of egg plant leaf disk with white fly eggs. The compounds or mixtures were formulated using a solution containing 75% water and 25% DMSO. Concentrations of formulated compounds or mixtures were sprayed onto the […] at 2.5 μl, using a custom built micro atomizer, at two replications.
# as §1
# After application, microtiter plates were incubated at 23±1° C., 65±5% RH for 6 days. Mortality of hatched crawlers was then visually assessed.
# Chilo suppressalis [6] = assay: B.3a Rice stem borer vial bioassay; details: 72 h
# Description: Field-collected rice straws were washed with tap water and cut for a certain of length. Straws were air dried before placing individually in vials (=replicate, 3×). About 125 μl test solution was sprayed per vial. Treated rice straws in vials were air dried under the laboratory hood. After air-drying, each straw was inoculated with 10 newly-emerged (0-day old) stem borer larvae. Vials were then covered. Set-up was kept in a holding room maintained at 27° C. and 65% RH for three days. At 3 days after inoculation, rice straws were manually dissected for larval mortality assessment. The data (Table C) show activity against two species of rice stem borers.
# [7] = system: Cowpea aphid (Aphis craccivora); assay: B.3 Cowpea aphid leaf disk test; details: foliar, 120 h
# Description: If not otherwise specified, the test solutions are prepared as follows:
# The active compound is dissolved at the desired concentration in a mixture of 1:1 (vol:vol) distilled water: acetone. The test solution is prepared at the day of use.
# B.3 Cowpea aphid (Aphis craccivora):
# For evaluating control of Cowpea aphid through contact or systemic means the test unit consists of 24-well-microtiter plates containing broad bean leaf disks.
# The compounds are formulated using a solution containing 75% v/v water and 25% v/v DMSO. Different concentrations of formulated compounds are sprayed onto the leaf disks at 2.5 μl, using a custom built micro atomizer, at two replications.
# After application, the leaf disks are air-dried and 5-8 adult aphids placed on the leaf disks inside the microtiter plate wells. The aphids are then allowed to suck on the treated leaf disks and incubated at about 23±1° C. and about 50±5% relative humidity for 5 days. Aphid mortality and fecundity is then visually assessed.
# Chilo suppressalis [8] = assay: B.3c Rice striped stem borer, drench application; details: Chilo suppressalis neonates, Dose 10 mg, 14 DAT
# From the text: The test solution was poured onto the soil of each potted rice plant (=replicate) with five tillers each pot. After drench application, treated plants were transferred inside the screenhouse for three days prior to stemborer inoculation inside the laboratory. Three days after drench application, 5 to 6-day old egg masses of CHILSU were used for inoculation. All stemborer-infested potted rice plants were transferred inside the screenhouse 1 day after inoculation until the final assessment. […] Whole plant damage was assessed before cutting each hill at the basal portion for tiller dissection. Each dissected tiller was inspected looking for dead (if possible) and alive stemborer larvae.
# [9] = system: Rice brown plant hopper (Nilaparvata lugens); assay: B.2 Rice brown plant hopper, sprayed rice seedlings; details: 72 h
# Description: B.2 Rice Brown Plant Hopper (Nilaparvata lugens):
# (§2) Rice seedlings are cleaned and washed 24 hours before spraying. The active compounds are formulated in 50:50 acetone:water (vol:vol) and 0.1% vol/vol surfactant (EL 620) is added. Potted rice seedlings are sprayed with 5 ml test solution, air dried, placed in cages and inoculated with 10 adults. Treated rice plants are kept at about 28-29° C. and relative humidity of about 50-60%. Percent mortality is recorded after 72 hours.
# [10] = system: Rice green leafhopper (Nephotettix virescens); assay: B.1 Rice green leafhopper, sprayed rice seedlings; details: 72 h
# Description: B.1 Rice Green Leafhopper (Nephotettix virescens):
# as §2, with “(vol:vol),” for “(vol:vol)”
# Chilo suppressalis [11] = assay: B.3b Rice striped stem borer, foliar spraying
# Description: All three pots (=replicates) of four to five-week old potted rice per treatment were simultaneously sprayed with 12 mL test solution. After spray application, plants were air dried in the laboratory before inoculation. After air-drying, 5 to 6-day old egg masses of CHILSU were used for inoculation. All stem borer-infested potted rice plants were transferred inside the screenhouse 1 day after inoculation until the final assessment. […] Whole plant damage was assessed before cutting each hill at the basal portion for tiller dissection. Each dissected tiller was inspected looking for dead (if possible) and alive stemborer larvae.
# [12] = system: Thrips (Dichromothrips corbetti); assay: B.4 Thrips floral-immersion test; details: 72 h
# Description: B.4 Thrips (Dichromothrips Corbetti):
# Dichromothrips corbetti adults used for bioassay are obtained from a colony maintained continuously under laboratory conditions. For testing purposes, the test compound is diluted in a 1:1 mixture of acetone:water (vol:vol), plus 0.01% vol/vol Alkamuls® EL 620 surfactant.
# Thrips potency of each compound is evaluated by using a floral-immersion technique. Plastic petri dishes are used as test arenas. All petals of individual, intact orchid flowers are dipped into treatment solution and allowed to dry. Treated flowers are placed into individual petri dishes along with about 20 adult thrips. The petri dishes v then covered with lids. All test arenas are held under continuous light and a temperature of about 28° C. for duration of the assay. After 3 days, the numbers of live thrips are counted on each flower, and along inner walls of each petri dish. The percent mortality is recorded 72 hours after treatment.
compound,measurement,setting,value
spinetoram [reference compound],Average control %,[1],62%
same,Average control %,[2],0%
same,Average control %,[3],50%
"Cc1cccc2sc3nncn3c12 [Tricyclazol, tricyclazole, reference compound]",Average control %,[4],50%
"CCS(=O)(=O)c1cccnc1-c1nc2cc(S(=O)(=O)C(F)(F)F)ccc2o1 [Oxazosulfyl, 2-(3-ethylsulfonyl-2-pyridyl)-5-(trifluoromethylsulfonyl)-1,3-benzoxazole, reference compound]",Average control %,[5],50%
"C[n+]1c2n(c([O-])c(-c3ccccc3)c1=O)C(c1cnc(Cl)s1)CS2 (racemic) [Compound I-1, 3-(2-chlorothiazol-5-yl)-8-methyl-7-oxo-6-phenyl-2,3-dihydrothiazolo[3,2-a]pyrimidin-8-ium-5-olate]",mortality at 300 ppm,Chilo suppressalis [6],80%
same,mortality at 1 ppm,[7],80%
same,Feeding damage (%),Chilo suppressalis [8],15%
same,mortality at 1 ppm,[9],54%
same,mortality at 1 ppm,[10],50%
same,Feeding damage (%),"Chilo suppressalis [11]; Chilo suppressalis neonates, foliar spraying, Dose 200 ppm, 14 DAT",15%
same,mortality at 200 ppm,"Chilo suppressalis [11]; Chilo suppressalis, foliar, 336 h",96%
same,mortality at 10 ppm,[12],73%

# Reference: patent US11578083B2, “Pyrimidinium compounds and their mixtures for combating animal pests” (BASF SE, priority 2017, dated 2023)
